From ChEMBL document CHEMBL1201862, “PubChem BioAssay data set” (2004)
Activity calls are given as the source filed them.

Tests used:
[1] = target: T1, Voltage-gated N-type calcium channel alpha-1B subunit/Amyloid beta A4 precursor protein-binding family A member 1 (Homo sapiens, UniProt Q00975+Q02410); assay type: protein assay
[2] = target: T1, Voltage-gated N-type calcium channel alpha-1B subunit/Amyloid beta A4 precursor protein-binding family A member 1; assay type: protein assay; remark: listed apart in the source
Estrogen receptor = target: T2, Estrogen receptor (Homo sapiens, UniProt P03372);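 further: potency for inhibiting coactivator peptide recruitment to the receptor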
T2 sequence (P03372 whole entry): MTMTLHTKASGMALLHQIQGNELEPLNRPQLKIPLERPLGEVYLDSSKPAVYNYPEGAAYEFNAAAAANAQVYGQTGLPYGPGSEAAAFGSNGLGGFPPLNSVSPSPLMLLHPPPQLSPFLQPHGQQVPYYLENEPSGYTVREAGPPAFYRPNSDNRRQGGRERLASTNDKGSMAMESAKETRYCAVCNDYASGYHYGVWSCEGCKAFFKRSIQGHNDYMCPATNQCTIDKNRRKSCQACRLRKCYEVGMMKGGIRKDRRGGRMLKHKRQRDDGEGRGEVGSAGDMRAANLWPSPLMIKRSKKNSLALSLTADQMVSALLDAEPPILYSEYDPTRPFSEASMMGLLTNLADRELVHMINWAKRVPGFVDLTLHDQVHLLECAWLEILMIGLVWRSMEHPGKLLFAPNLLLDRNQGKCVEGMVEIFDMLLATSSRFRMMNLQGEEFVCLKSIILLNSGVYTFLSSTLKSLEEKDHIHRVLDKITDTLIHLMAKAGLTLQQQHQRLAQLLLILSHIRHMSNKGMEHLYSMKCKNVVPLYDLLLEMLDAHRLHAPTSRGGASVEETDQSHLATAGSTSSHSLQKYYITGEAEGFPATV

[3] = cytotoxicity in HPDE-C7 cells, cell-based, fluorescence, HTS (AID 430); assay type: functional; settings: Homo sapiens
Ephrin type-A receptor 4 = Ephrin type-A receptor 4 (Mus musculus, UniProt Q03137); test: inhibitors of EphA4 binding to KYL peptide, primary screen, biochemical, colorimetric, mouse EphA4 (AID 689); assay type: functional
[4] = target: Induced myeloid leukemia cell differentiation protein Mcl-1 (Homo sapiens, UniProt Q07820); assay type: functional
[5] = cytotoxicity in KRAS-transformed pancreatic duct cells, primary screen, cell-based, fluorescence, HTS (AID 431); assay type: functional; settings: Homo sapiens;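 further: cell line used: HPDE-C7K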
Aspartyl aminopeptidase = Aspartyl aminopeptidase (Plasmodium falciparum 3D7, UniProt Q8I2J3)
Procathepsin L = Procathepsin L (Homo sapiens, UniProt P07711)
[6] = target: T3, Intestinal-type alkaline phosphatase (Mus musculus, UniProt P24822); test: PubChem AID 488875; assay type: functional
[7] = target: T4, Intestinal-type alkaline phosphatase (Homo sapiens, UniProt P09923); test: human intestinal alkaline phosphatase activators, dose response, biochemical, luminescence, uHTS hits (AID 463120); assay type: functional
[8] = target: T5, Alkaline phosphatase, tissue-nonspecific isozyme (Homo sapiens, UniProt P05186); test: TNAP enzyme activators, dose response, selectivity assay for human IAP activator project, biochemical, TNAP isozyme, human IAP uHTS hits (AID 488886); assay type: functional;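 further: potency of compounds raising TNAP activity as a selectivity check on IAP activators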
T5 sequence (P05186 whole entry): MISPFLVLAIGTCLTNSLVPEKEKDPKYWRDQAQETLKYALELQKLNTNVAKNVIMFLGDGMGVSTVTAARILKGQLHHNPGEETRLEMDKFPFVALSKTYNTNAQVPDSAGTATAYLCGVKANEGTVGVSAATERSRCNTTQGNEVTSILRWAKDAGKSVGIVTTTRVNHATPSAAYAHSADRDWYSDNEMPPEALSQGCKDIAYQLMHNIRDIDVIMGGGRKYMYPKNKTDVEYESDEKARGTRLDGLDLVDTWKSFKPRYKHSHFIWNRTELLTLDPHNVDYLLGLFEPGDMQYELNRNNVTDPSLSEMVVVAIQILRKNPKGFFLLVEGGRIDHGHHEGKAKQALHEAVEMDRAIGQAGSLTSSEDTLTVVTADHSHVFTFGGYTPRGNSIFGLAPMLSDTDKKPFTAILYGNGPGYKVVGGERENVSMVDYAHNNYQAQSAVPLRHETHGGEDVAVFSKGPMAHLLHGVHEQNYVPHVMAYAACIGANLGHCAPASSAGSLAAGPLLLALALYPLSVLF

[9] = target: T4, Intestinal-type alkaline phosphatase; test: human IAP activators, dose response, biochemical, luminescent, uHTS hits, set 2 (AID 488817); assay type: functional;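 further: potency of activators that raise enzyme activity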
[10] = target: Heat shock protein HSP 90-alpha (Homo sapiens, UniProt P07900); assay type: functional, organism-based
INS1 = test: beta cell apoptosis inhibitors, cytokine rescue, dose response, luminescence, retest (AID 449756); assay type: functional, cell-based; settings: Rattus norvegicus;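 further: cell death triggered by IL-1 beta plus TNF-alpha plus IFN-gamma mixture; protective hits raise ATP signal compared with cytokine alone wells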
[11] = target: Acyl-homoserine lactone acylase PvdQ (Pseudomonas aeruginosa (strain LESB58), UniProt Q9I194); test: P. aeruginosa PvdQ acylase inhibitors, dose response, biochemical, fluorescence, plate reader and imaging, cherry-picks (AID 493231)
Streptococcus = test: Group A Streptococcus viability loss, dose response, counter-screen for streptokinase expression inhibitor project, luminescence, BacTiterGlo (AID 1915); assay type: functional, organism-based;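 further: potency for reduction of bacterial viability or growth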
[12] = tested on: Streptococcus sp. 'group A'; test: growth inhibition of control SK(-) GAS strain, dose response, counter-screen for streptokinase expression inhibitor project, luminescence, kanamycin, BacTiterGlo, confirmation (AID 1900); assay type: functional, organism-based
Streptokinase A = target: T6, Streptokinase A (Streptococcus pyogenes serotype M1, UniProt P10520); test: S. pyogenes streptokinase expression inhibitors, potency, dose response, plasminogen activation absorbance, OD405 (AID 1914); assay type: functional, Streptococcus pyogenes M1 GAS;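 further: secreted streptokinase activity via plasminogen activation per viability signal from cell pellet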
T6 sequence (P10520 whole entry): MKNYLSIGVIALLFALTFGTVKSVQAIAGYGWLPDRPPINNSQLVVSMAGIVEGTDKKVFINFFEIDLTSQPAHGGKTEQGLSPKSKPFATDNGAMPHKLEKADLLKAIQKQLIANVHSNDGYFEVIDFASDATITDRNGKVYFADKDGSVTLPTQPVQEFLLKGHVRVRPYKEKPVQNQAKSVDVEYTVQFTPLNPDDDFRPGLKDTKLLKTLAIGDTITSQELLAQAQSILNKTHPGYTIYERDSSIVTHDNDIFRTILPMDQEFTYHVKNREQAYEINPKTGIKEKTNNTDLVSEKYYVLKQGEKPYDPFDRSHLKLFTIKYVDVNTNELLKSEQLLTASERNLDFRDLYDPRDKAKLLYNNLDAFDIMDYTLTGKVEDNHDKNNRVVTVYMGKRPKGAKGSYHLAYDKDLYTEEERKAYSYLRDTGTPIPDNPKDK

[13] = target: T3, Intestinal-type alkaline phosphatase; test: PubChem AID 488785; assay type: functional
[14] = target: T4, Intestinal-type alkaline phosphatase; test: activation of human intestinal alkaline phosphatase – biochemical, dose response (AID 488873); assay type: functional
[15] = target: T5, Alkaline phosphatase, tissue-nonspecific isozyme; test: TNAP enzyme inhibition by screening hits, dose response, selectivity assay for mouse IAP inhibitor project, biochemical, human TNAP, uHTS hits (AID 488906); assay type: functional
Troponin, cardiac muscle = Troponin, cardiac muscle (Homo sapiens, UniProt P19429+P45379+P63316); test: Fluorescence-based biochemical high throughput dose response assay for activators of the calcium sensitivity of cardiac Regulated Thin Filaments (RTF). [Related pubchem assays (depositor defined):AID493008, AID493018, AID504382, AID504383]; assay type: protein-complex assay
Cytochrome P450 2C19 [16] = target: T7, Cytochrome P450 2C19 (Homo sapiens, UniProt P33261); test: qHTS Assay for Inhibitors and Substrates of Cytochrome P450 2C19. [Related pubchem assays: 410 ]; assay type: ADME; settings: read-out: Potency
Cytochrome P450 2D6 = Cytochrome P450 2D6 (Homo sapiens, UniProt P10635); test: qHTS Assay for Inhibitors and Substrates of Cytochrome P450 2D6. [Related pubchem assays: 410 ]; assay type: ADME; settings: read-out: Potency
[17] = target: Lysosomal acid glucosylceramidase (Homo sapiens, UniProt P04062); test: Dose response cell-based high throughput screening assay to identify enhancers of beta-glucosidase activity. [Related pubchem assays: 784 ]; assay type: functional
Aminopeptidase N = target: T8, Aminopeptidase N (Plasmodium falciparum FcB1/Columbia, UniProt O96935); test: P. falciparum M1AAP inhibitors, biochemical, fluorogenic H-Leu-NHMec substrate, 1536-well (AID 1445); parameters: species or system Plasmodium falciparum 3D7, 3D7
T8 sequence (O96935 whole entry): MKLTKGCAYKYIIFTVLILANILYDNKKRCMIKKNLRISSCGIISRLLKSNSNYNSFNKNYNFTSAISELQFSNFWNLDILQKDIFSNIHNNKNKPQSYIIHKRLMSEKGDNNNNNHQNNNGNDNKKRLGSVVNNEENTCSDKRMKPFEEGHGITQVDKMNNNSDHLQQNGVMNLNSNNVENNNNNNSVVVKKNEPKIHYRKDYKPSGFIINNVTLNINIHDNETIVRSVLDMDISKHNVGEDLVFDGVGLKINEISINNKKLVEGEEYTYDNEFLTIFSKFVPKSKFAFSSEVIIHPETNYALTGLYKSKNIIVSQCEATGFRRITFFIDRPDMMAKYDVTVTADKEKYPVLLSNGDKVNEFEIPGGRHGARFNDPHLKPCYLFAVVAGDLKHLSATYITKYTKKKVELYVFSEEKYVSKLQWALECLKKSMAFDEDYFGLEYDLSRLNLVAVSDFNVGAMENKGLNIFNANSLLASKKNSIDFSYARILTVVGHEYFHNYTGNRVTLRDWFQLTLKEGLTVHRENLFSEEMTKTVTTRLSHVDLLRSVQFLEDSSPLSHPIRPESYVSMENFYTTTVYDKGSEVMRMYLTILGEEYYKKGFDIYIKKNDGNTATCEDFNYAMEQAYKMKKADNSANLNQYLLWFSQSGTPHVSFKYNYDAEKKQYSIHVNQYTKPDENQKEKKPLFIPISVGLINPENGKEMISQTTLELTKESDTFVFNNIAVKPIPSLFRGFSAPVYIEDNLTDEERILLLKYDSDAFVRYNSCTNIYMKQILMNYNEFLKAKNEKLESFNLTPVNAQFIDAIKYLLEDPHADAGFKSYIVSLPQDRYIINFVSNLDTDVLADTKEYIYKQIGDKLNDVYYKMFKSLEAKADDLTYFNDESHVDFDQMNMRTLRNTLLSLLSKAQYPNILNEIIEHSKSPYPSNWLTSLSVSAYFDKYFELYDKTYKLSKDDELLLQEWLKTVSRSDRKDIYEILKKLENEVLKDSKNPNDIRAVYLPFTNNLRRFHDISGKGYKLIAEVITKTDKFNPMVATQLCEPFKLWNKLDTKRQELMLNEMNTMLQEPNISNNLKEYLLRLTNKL

Cytochrome P450 2C19 [18] = target: T7, Cytochrome P450 2C19; test: Cytochrome panel assay with activity outcomes. Panel member name: p450-cyp2c19 Compounds with AC50 equal or less than 10 uM are considered active; assay type: functional
Cytochrome P450 2C9 = Cytochrome P450 2C9 (Homo sapiens, UniProt P11712)
[19] = target: G-protein coupled receptor 55 (Homo sapiens, UniProt Q9Y2T6); test: GPR55 antagonists blocking LPI-driven arrestin recruitment, primary screen, imaging, U2OS, beta-arrestin-GFP, LPI agonist (AID 2013); assay type: functional;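 further: antagonist potency measured as reduced agonist-driven arrestin aggregation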
Chain of G-protein coupled receptor 55 (Q9Y2T6 whole entry): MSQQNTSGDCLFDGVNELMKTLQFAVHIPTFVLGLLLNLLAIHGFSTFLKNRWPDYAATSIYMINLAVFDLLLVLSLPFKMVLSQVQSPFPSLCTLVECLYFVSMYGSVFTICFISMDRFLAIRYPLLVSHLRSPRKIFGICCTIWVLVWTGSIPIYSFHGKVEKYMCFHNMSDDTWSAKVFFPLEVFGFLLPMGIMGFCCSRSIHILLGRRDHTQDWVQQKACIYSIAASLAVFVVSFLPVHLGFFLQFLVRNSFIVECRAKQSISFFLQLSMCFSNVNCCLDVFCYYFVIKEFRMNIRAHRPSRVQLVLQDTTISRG

T3 sequence (P24822 whole entry): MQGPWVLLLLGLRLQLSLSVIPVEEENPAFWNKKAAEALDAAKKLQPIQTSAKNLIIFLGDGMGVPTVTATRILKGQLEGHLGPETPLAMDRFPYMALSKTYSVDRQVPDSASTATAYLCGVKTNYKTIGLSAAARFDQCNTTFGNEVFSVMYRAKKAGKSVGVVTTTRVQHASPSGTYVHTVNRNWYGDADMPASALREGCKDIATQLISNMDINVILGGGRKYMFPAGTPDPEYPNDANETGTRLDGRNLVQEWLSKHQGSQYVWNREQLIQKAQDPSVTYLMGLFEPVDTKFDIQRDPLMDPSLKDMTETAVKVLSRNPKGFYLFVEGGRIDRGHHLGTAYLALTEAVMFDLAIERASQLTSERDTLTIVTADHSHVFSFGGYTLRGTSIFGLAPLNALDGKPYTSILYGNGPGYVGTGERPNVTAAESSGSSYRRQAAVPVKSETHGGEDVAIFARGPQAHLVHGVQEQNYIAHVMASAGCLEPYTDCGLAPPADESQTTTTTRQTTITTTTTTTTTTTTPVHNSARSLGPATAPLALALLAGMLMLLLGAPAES
T4 sequence (P09923 whole entry): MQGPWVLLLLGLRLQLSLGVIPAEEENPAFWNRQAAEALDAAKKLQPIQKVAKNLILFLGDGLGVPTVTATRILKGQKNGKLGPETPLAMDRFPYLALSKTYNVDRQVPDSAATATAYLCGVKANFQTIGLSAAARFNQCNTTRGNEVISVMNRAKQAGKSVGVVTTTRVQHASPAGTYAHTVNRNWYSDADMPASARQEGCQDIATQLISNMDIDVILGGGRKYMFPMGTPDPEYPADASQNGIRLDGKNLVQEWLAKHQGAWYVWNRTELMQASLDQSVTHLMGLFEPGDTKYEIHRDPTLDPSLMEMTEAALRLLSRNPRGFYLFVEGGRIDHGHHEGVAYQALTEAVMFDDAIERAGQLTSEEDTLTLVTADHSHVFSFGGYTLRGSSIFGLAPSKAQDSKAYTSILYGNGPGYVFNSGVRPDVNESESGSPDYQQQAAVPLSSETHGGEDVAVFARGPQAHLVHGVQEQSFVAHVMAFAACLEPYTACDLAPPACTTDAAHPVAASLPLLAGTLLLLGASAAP
T7 sequence (P33261 whole entry): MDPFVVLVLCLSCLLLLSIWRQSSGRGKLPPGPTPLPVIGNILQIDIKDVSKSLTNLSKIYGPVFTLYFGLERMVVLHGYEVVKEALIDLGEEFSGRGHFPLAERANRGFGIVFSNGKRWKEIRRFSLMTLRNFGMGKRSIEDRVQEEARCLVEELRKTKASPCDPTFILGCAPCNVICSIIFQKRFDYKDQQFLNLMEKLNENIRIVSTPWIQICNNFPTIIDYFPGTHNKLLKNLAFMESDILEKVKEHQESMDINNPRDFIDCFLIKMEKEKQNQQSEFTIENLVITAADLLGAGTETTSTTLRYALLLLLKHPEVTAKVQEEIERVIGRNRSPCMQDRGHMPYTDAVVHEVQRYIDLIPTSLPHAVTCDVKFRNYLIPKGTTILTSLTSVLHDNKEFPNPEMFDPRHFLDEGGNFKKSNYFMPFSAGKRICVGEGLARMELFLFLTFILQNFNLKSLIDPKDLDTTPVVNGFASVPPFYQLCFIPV
Chain of Procathepsin L (P07711 whole entry): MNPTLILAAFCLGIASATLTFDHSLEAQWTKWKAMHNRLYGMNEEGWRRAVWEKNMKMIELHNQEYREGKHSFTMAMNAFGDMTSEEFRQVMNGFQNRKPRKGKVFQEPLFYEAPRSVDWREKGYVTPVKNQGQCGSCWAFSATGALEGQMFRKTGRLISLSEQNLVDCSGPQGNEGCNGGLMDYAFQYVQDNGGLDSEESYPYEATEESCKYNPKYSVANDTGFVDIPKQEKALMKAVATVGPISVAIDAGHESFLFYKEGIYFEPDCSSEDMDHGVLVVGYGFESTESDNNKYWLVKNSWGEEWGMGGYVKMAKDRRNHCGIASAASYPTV
Chain of Aspartyl aminopeptidase (Q8I2J3 whole entry): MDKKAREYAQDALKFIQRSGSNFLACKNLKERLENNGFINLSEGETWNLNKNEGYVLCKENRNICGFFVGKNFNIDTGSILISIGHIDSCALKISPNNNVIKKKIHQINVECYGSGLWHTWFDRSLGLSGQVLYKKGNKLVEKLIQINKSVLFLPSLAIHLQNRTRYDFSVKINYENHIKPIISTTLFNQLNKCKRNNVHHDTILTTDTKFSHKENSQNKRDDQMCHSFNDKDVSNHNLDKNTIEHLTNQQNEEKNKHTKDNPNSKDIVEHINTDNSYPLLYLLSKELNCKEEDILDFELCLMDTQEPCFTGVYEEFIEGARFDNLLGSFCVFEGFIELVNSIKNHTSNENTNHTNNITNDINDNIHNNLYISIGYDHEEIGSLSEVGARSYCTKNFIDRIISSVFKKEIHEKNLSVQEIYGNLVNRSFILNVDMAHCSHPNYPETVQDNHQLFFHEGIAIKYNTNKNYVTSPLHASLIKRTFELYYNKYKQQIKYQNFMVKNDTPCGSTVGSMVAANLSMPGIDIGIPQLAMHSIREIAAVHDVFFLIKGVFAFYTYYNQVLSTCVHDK
Chain of Lysosomal acid glucosylceramidase (P04062 whole entry): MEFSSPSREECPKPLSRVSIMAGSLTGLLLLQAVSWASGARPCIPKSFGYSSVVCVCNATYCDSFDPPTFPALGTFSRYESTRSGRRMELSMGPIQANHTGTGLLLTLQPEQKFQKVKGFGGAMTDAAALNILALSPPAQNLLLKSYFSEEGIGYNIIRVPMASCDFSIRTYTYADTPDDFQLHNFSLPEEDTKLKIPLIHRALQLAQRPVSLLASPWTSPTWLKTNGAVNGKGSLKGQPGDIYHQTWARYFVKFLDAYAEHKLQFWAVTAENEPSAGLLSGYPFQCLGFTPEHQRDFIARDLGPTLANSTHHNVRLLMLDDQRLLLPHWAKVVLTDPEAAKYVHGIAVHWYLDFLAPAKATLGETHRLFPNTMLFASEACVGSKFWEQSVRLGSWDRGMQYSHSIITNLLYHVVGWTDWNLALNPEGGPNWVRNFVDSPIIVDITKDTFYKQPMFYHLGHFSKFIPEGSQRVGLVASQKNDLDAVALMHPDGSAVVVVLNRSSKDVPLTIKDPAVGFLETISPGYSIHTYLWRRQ
Chain of Induced myeloid leukemia cell differentiation protein Mcl-1 (Q07820 whole entry): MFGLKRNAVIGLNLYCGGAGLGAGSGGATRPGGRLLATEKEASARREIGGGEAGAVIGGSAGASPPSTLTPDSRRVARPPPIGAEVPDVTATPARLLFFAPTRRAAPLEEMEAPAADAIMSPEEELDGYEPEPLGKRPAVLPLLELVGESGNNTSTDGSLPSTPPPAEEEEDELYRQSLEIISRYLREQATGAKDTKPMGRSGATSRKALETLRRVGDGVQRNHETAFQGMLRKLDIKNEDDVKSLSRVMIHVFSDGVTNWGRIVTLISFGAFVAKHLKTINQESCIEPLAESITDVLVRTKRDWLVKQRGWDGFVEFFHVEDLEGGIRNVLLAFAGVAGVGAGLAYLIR
Chain of Acyl-homoserine lactone acylase PvdQ (Q9I194 24-193 limits assumed): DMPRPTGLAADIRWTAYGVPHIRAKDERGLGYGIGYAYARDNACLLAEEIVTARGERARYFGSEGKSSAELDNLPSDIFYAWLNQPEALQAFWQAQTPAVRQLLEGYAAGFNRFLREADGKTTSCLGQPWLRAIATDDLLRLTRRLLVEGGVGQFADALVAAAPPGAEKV
Chain of Acyl-homoserine lactone acylase PvdQ (Q9I194 217-762 limits assumed): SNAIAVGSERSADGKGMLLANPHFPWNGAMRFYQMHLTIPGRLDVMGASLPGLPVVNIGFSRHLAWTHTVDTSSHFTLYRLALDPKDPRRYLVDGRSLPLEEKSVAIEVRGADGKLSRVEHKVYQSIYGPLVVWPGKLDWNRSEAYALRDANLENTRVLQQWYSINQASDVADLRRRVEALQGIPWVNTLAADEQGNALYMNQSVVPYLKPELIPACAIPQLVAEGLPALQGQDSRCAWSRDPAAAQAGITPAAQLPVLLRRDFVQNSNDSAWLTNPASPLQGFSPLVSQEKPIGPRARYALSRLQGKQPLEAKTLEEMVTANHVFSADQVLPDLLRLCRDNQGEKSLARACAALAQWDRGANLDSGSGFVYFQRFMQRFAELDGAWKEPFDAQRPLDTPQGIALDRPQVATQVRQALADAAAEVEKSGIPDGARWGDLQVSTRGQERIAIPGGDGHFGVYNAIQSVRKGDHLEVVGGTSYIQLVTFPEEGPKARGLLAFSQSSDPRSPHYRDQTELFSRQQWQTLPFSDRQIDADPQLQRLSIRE
Chain of Cytochrome P450 2D6 (P10635 whole entry): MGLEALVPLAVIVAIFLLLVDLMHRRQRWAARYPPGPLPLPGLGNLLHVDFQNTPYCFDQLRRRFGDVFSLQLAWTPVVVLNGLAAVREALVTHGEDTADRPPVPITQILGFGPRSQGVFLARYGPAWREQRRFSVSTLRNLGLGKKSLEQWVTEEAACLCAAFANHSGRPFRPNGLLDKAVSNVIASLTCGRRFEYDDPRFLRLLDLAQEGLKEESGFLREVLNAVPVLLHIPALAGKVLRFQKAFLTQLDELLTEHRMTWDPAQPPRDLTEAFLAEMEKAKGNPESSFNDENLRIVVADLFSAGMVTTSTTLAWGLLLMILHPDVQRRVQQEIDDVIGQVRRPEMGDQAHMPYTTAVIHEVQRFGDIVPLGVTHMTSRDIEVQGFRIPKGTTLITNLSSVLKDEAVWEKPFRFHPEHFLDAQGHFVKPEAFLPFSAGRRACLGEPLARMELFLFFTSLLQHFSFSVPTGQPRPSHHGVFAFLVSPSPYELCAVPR

Compound: CSc1nc(NCCOCCO)c2sc3nc(-c4ccco4)c4c(c3c2n1)CCC4
- IC50 [1]: 1.98 µM (active)
- IC50 [2]: 14.7 µM (active)
- IC50 (Estrogen receptor): > 50 µM (not active)
- EC50 [3]: 8.85 µM (active)
- IC50 (Ephrin type-A receptor 4): > 100 µM (not active)
- IC50 [4]: 1.92 µM (active)
- EC50 [5]: 6.86 µM (active)

Compound: CCOc1cc(C(=O)NC(=S)Nn2cnnc2)cc(OCC)c1OCC
- IC50 (Aspartyl aminopeptidase): 0.921 µM (active)
- IC50 (Procathepsin L): > 59.6 µM (not active)

Compound: CC1=NN(c2nc3ccccc3[nH]2)C(=O)/C1=C/N(C)C
- EC50 [6]: > 100 µM (inactive)
- EC50 [7]: 12.3 µM (active)
- EC50 [8]: 11.4 µM (active)
- EC50 [9]: 23.2 µM (active)
- AC50 [10]: 6.12 µM (active)
- AC50 (INS1): 2.48 µM (active)

Compound: Cc1cc(C)nc(N(C#N)Cc2ccc([N+](=O)[O-])cc2)n1
- AC50 [11]: > 100 µM (inactive)

Compound: NS(=O)(=O)c1ccc(-c2ccc(/C=C3\SC(=S)N(C4CCS(=O)(=O)C4)C3=O)o2)cc1 (centres undefined)
- EC50 (Streptococcus): 32.2 µM (active)
- EC50 [12]: 7.36 µM (active)
- EC50 (Streptokinase A): > 150 µM (not active)
- IC50 [13]: > 100 µM (inactive)
- EC50 [14]: 29.4 µM (active)
- IC50 [4]: 1.85 µM (active)
- IC50 [15]: 1.32 µM (active)

Compound: Cn1cc(/C=C2\SC(=S)N(NC(=O)c3ccccc3)C2=O)c2ccccc21
- EC50 (Troponin, cardiac muscle): 1.47 µM (active)

Compound: CCOC(=O)c1ccc(NC(=O)c2ccco2)cc1
- AC50 [11]: 57.2 µM (active)

Compound: CCOC(=O)[C@]1(C(NC(=O)OC)c2cccc(F)c2)CCCC1=O (some centres undefined)
- AC50 (Cytochrome P450 2C19 [16]): 3.98 µM (inconclusive)
- AC50 (Cytochrome P450 2D6): 3.98 µM (inconclusive)

Compound: COc1ccc(C(=O)n2cnnc2N)cc1
- IC50 (Aspartyl aminopeptidase): 2.51 µM (active)
- IC50 (Procathepsin L): > 59.6 µM (not active)

Compound: CC(=O)Nc1cccc(NC(=O)C2CCCN2C(=O)Nc2ccc(C)cc2)c1 (centres undefined)
- EC50 [17]: > 50 µM (not active)
- IC50 (Aminopeptidase N): 61.3 µM (active)

Compound: COc1cccc2cc(NC(=O)C3CCCCC3)c(=O)oc12
- EC50 [17]: > 50 µM (not active)
- AC50 (Cytochrome P450 2C19 [18]): 39.8 µM (inconclusive)
- AC50 (Cytochrome P450 2C9): inconclusive

Compound: Cc1ccc(-c2nc(SCC(=O)N(C)C3CCS(=O)(=O)C3)[nH]c2-c2ccc(C)cc2)cc1 (centres undefined)
- IC50 [19]: 3.83 µM (active)

Compound: Cc1nn(C)c(C(=O)NN=C(S)NCc2ccccc2)c1Cl
- EC50 [6]: > 100 µM (inactive)
- EC50 [7]: 14.8 µM (active)
- EC50 [8]: 17.3 µM (active)
- EC50 [9]: 17 µM (active)
